Read-outs that look alike come from different tables or passages of the source.
How the values were obtained:
Assay type in all cases: in vivo
weeds = assay: Activity assay of compositions, soil sealing treatment (S); settings: for pest or weed control at 300 g/ha: B 300 g a.i./ha
Text: The required active ingredient B was purchased from a reagent company or a technical material manufacturer or synthesized by a conventional method. The technical materials were all dissolved with acetone solvents and diluted with aqueous solution of 0.1% Tween® 80 emulsifier, which should be used immediately after dilution.
The test soil was quantitatively filled to ¾ of a pot, and then watered from the bottom of the pot to completely wet the soil to saturation. The seeds of the test weeds were accelerated to Just germinate, and then evenly and quantitatively broadcasted on the soil surface, covered with 0.5-1 cm soil according to the sizes of the seeds, and ready for use 72 hours after broadcasting.
Each treatment was repeated 4 times. Four pots were treated each time with 20 weed seeds per pot.
The seeds were planted in a 20 cm*30 cm square box. Water was added to 2-3 cm deep after sowing, then injected with the drug agent using a syringe, stirred evenly, and left to stand for 2 days to dry naturally. The soil was kept moist afterwards.
A method for investigating absolute numbers was employed. The whole seedlings of the survival weeds were cut along the soil surface with a blade, and the fresh weight of the weeds was weighed by an analytical balance. For dead weeds, the fresh weight thereof was considered zero.
The investigation was performed 21 days after the treatment for once in total.
The theoretical fresh weight inhibition rate of a mixed combination of each treatment was calculated by the Gowing method (E0═X+Y−X*Y/100), then compared with the measured inhibition rate (E) to evaluate the type of the combined action of the combination of the two on weeds. The combined action was a synergistic effect when E−E0 >10%; an antagonistic effect when E−E0<−10%; an additional effect when −10%≤E−E0≤10%. An optimal ratio was determined according to factors such as actual control effects, characteristics of herbicides, balance of the formulation, etc.

Digitaria sanguinalis = assay: Seedling stage sealing experiment for water-seeding; settings: 120 g a.i./ha, seedling stage sealing, 15 days, fresh weight control rate
Method in brief: (§1)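 Scores (0 = no effect to 9 = dead) reflect fresh-weight control rate 15 days after spray application in greenhouse at 15, 30, 60 or 120 g a.i./ha, mean of three replicates. Seeds were broadcast and soil-covered in pots held moist in water-filled cultivation boxes.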

Echinochloa crusgalli = assay: as above; settings: 120 g a.i./ha, seedling stage sealing, 15 days, fresh weight control rate
Leptochloa chinensis = assay: as above; settings: 120 g a.i./ha, 15 days, fresh weight control rate
Method in brief: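 Seeds sown in soil-filled bowls kept moist in water-filled boxes; compound in acetone diluted with water and spray-applied at 120, 60, 30 and 15 g a.i./ha, triplicate. After 15 days in greenhouse, fresh-weight growth control scored on a 0–9 scale (9 = dead, 0 = no effect), averaged.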

Echinochloa phyllopogon = assay: as above; settings: 120 g a.i./ha, seedling stage sealing, 15 days, fresh weight control rate
Method in brief: as §1

Huaidao (rice cultivar) = assay: Seedling stage sealing experiment for water-seeding (crop safety); settings: 120 g a.i./ha, seedling stage sealing, 15 days, fresh weight control rate
Method in brief: as §1

[1] = soil, Rotala indica, S, B 7.5 g a.i./ha, read-out: Control effect of B applied alone in a corresponding dose (%)
[2] = soil, Rotala indica, S, B 15 g a.i./ha, read-out: Control effect of B applied alone in a corresponding dose (%)
[3] = soil, Paspalum distichum, S, B 30 g a.i./ha, read-out: Control effect of B applied alone in a corresponding dose (%)
[4] = soil, Paspalum distichum, S, B 60 g a.i./ha, read-out: Control effect of B applied alone in a corresponding dose (%)
[5] = soil, Paspalum distichum, S, B 7.5 g a.i./ha, read-out: Control effect of B applied alone in a corresponding dose (%)
[6] = soil, Paspalum distichum, S, B 15 g a.i./ha, read-out: Control effect of B applied alone in a corresponding dose (%)
[7] = soil, Rotala indica, S, B 150 g a.i./ha, read-out: Control effect of B applied alone in a corresponding dose (%)
[8] = soil, Rotala indica, S, read-out: Control effect of B applied alone in a corresponding dose (%)
[9] = Rotala indica, soil, read-out: Control effect of B applied alone in a corresponding dose (%)
[10] = Rotala indica, S, B 15 g a.i./ha
[11] = Rotala indica, S, B 30 g a.i./ha
[12] = Alisma plantago-aquatica, S, B 3.75 g a.i./ha
[13] = Alisma plantago-aquatica, S, B 7.5 g a.i./ha

For `CCc1ccc(-n2cnc(C(F)(F)F)n2)nc1Oc1cccc(C(F)(F)F)c1`, the pest or weed control at 7.5 g/ha (weeds; [1]) was 47.1% and the pest or weed control at 15 g/ha (weeds; [2]) was 63.6%.

Work on `CCC[S@@+]([O-])c1c(C(F)(F)F)ccc(C(=O)Nc2nnc(C)o2)c1F` yielded a pest or weed control at 15 g/ha (weeds; [2]) of 35.8% and a pest or weed control at 30 g/ha (weeds; soil, Rotala indica, S, B 30 g a.i./ha, read-out: Control effect of B applied alone in a corresponding dose (%)) of 46.6%.

`COC(=O)[C@@H](C)O/N=C/c1cc(-n2c(=O)cc(C(F)(F)F)n(C)c2=O)c(F)cc1Cl` gave a pest or weed control at 7.5 g/ha (weeds; [1]) of 47.9% and a pest or weed control at 15 g/ha (weeds; [2]) of 56.6%.

In the case of `CC1(C)CON(Cc2ccc(Cl)cc2Br)C1=O`, the pest or weed control at 30 g/ha (weeds; [3]) is reported as 37.8% and the pest or weed control at 60 g/ha (weeds; [4]) is reported as 51.3%.

Compound `CC(C)C12CCC(C)(O1)C(OCc1c(F)cccc1Br)C2` (stereo not drawn) has a pest or weed control at 7.5 g/ha (weeds; [5]) of 46.3% and a pest or weed control at 15 g/ha (weeds; [6]) of 57.4%.

`Cc1ccccc1CO[C@@H]1C[C@@]2(C(C)C)CC[C@]1(C)O2` (racemic) [Cinmethylin, cinmethylin] was tested, and the pest or weed control at 7.5 g/ha (weeds; [5]) was 34.8% and the pest or weed control at 15 g/ha (weeds; [6]) was 47.6%.

`CN1C[C@H](c2cc(F)cc(F)c2)[C@@H](C(=O)Nc2cnn(C)c2Cl)C1=O` [115′] was tested, and the “Digitaria sanguinalis activity level (growth control rate)” value (“Digitaria sanguinalis activity level” below) (Digitaria sanguinalis) was 8 (Level 8: growth control rate greater than or equal to 90% and less than 100%), the “Echinochloa crusgalli activity level (growth control rate)” value (from here on “Echinochloa crusgalli activity level”) (Echinochloa crusgalli) was 9 and the “Leptochloa chinensis activity level (growth control rate)” value (from here on “Leptochloa chinensis activity level”) (Leptochloa chinensis) was 8 (Level 8: growth control rate greater than or equal to 90% and less than 100%).

In the case of `Cc1cccc([C@H]2CN(C)C(=O)[C@@H]2C(=O)Nc2cnn(C(F)F)c2Cl)c1` [131′], the “Digitaria sanguinalis activity level” value (Digitaria sanguinalis) is reported as 9, the “Echinochloa crusgalli activity level” value (Echinochloa crusgalli) is reported as 9 and the “Echinochloa phyllopogon activity level (growth control rate)” value (from here on “Echinochloa phyllopogon activity level”) (Echinochloa phyllopogon) is reported as 9. For the same compound, the “Leptochloa chinensis activity level” value (Leptochloa chinensis) was 9.

In the case of `Cc1cccc([C@H]2CN(C)C(=O)[C@@H]2C(=O)Nc2cnn(C)c2C2CC2)c1` [139′], the “Digitaria sanguinalis activity level” value (Digitaria sanguinalis) is reported as 7 (Level 7: growth control rate greater than or equal to 80% and less than 90%), the “Echinochloa crusgalli activity level” value (Echinochloa crusgalli) is reported as 9 and the “Leptochloa chinensis activity level” value (Leptochloa chinensis) is reported as 9.

In the case of `C=CCn1ncc(NC(=O)[C@H]2C(=O)N(C)C[C@@H]2c2cccc(C(F)(F)F)c2)c1Cl` [162′], the “Digitaria sanguinalis activity level” value (Digitaria sanguinalis) is reported as 8 (Level 8: growth control rate greater than or equal to 90% and less than 100%), the “Echinochloa crusgalli activity level” value (Echinochloa crusgalli) is reported as 9 and the “Leptochloa chinensis activity level” value (Leptochloa chinensis) is reported as 9.

In the case of `CN1C[C@H](c2cc(C(F)(F)F)cc(C(F)(F)F)c2)[C@@H](C(=O)Nc2cnn(C)c2Cl)C1=O` [295′], the “Digitaria sanguinalis activity level” value (Digitaria sanguinalis) is reported as 9, the “Echinochloa crusgalli activity level” value (Echinochloa crusgalli) is reported as 7 (Level 7: growth control rate greater than or equal to 80% and less than 90%) and the “Echinochloa phyllopogon activity level” value (Echinochloa phyllopogon) is reported as 6 (Level 6: growth control rate greater than or equal to 70% and less than 80%). For the same compound, the “Leptochloa chinensis activity level” value (Leptochloa chinensis) was 9.

With `COc1cc(F)cc([C@H]2CN(C)C(=O)[C@@H]2C(=O)Nc2cnn(C)c2Cl)c1` [298′] the “Digitaria sanguinalis activity level” value (Digitaria sanguinalis) was 9, the “Echinochloa crusgalli activity level” value (Echinochloa crusgalli) was 7 (Level 7: growth control rate greater than or equal to 80% and less than 90%) and the “Echinochloa phyllopogon activity level” value (Echinochloa phyllopogon) was 6 (Level 6: growth control rate greater than or equal to 70% and less than 80%). The “Leptochloa chinensis activity level” value (Leptochloa chinensis) was 7 (Level 7: growth control rate greater than or equal to 80% and less than 90%).

For `Cc1ccc([C@H]2CN(C)C(=O)[C@@H]2C(=O)Nc2cnn(C)c2Cl)cc1F` [313′], the “Digitaria sanguinalis activity level” value (Digitaria sanguinalis) was 9, the “Echinochloa crusgalli activity level” value (Echinochloa crusgalli) was 9 and the “Leptochloa chinensis activity level” value (Leptochloa chinensis) was 9.

With `CCOCN(C(=O)CCl)c1c(C)cccc1CC` [Acetochlor, acetochlor] the pest or weed control at 150 g/ha (weeds; [7]) was 46.2% and the pest or weed control at 300 g/ha (weeds; [8]) was 66.5%.

With `COP(=S)(OC)SCC(=O)N(c1ccc(Cl)cc1)C(C)(C)C` [Anilofos, anilofos] the pest or weed control at 75 g/ha (weeds; [9]) was 22.4% and the pest or weed control at 150 g/ha (weeds; [9]) was 31.8%.

In the case of `CS(=O)(=O)c1ccc(C(=O)C2=C(Sc3ccccc3)C3CCC(C3)C2=O)c(Cl)c1` (stereo not drawn) [Benzobicyclon, benzobicyclon], the “Control effect of B applied alone in a corresponding dose (%)” value (shortened to “Control effect of B applied alone … (%)”) (weeds; [10]) is reported as 32.8% and the “Control effect of B applied alone … (%)” value (weeds; [11]) is reported as 49.6%.

`Cc1nn(C)cc1C(=O)Oc1c(C(=O)c2ccc(C(F)(F)F)cc2S(C)(=O)=O)c(C)nn1C` [Bipyrazone, bipyrazone] was tested, and the “Control effect of B applied alone … (%)” value (weeds; [10]) was 24.5% and the “Control effect of B applied alone … (%)” value (weeds; [11]) was 38.8%.

In the case of `CC1(C)CON(Cc2ccc(Cl)cc2Cl)C1=O` [Bixlozone, bixlozone], the “Control effect of B applied alone … (%)” value (weeds; Paspalum distichum, S, B 30 g a.i./ha) is reported as 41.7% and the “Control effect of B applied alone … (%)” value (weeds; Paspalum distichum, S, B 60 g a.i./ha) is reported as 52.8%.

`CCCCOCN(C(=O)CCl)c1c(CC)cccc1CC` [Butachlor, butachlor] gave a pest or weed control at 150 g/ha (weeds; [7]) of 42.4% and a pest or weed control at 300 g/ha (weeds; [8]) of 58.6%.

In the case of `CC1(C)CON(Cc2ccccc2Cl)C1=O` [Clomazone, clomazone], the pest or weed control at 30 g/ha (weeds; [3]) is reported as 44.3% and the pest or weed control at 60 g/ha (weeds; [4]) is reported as 51.5%.

With `Cc1ccc(C2CN(C)C(=O)C2C(=O)Nc2cnn(C)c2Cl)cc1C(F)(F)F` (stereo not drawn) [Compound 56] the “Digitaria sanguinalis activity level” value (Digitaria sanguinalis) was 9, the “Echinochloa crusgalli activity level” value (Echinochloa crusgalli) was 9 and the “Echinochloa phyllopogon activity level” value (Echinochloa phyllopogon) was 6 (Level 6: growth control rate greater than or equal to 70% and less than 80%). The “Leptochloa chinensis activity level” value (Leptochloa chinensis) was 9.

With `CN1CC(c2cc(F)c(F)c(F)c2)C(C(=O)Nc2cnn(C)c2Cl)C1=O` (stereo not drawn) [Compound 114] the “Digitaria sanguinalis activity level” value (Digitaria sanguinalis) was 9, the “Echinochloa crusgalli activity level” value (Echinochloa crusgalli) was 9 and the “Echinochloa phyllopogon activity level” value (Echinochloa phyllopogon) was 6 (Level 6: growth control rate greater than or equal to 70% and less than 80%). For the same compound, the “Leptochloa chinensis activity level” value (Leptochloa chinensis) was 9.

For `Cc1cc(C)cc(C2CN(C)C(=O)C2C(=O)Nc2cnn(C)c2Cl)c1` (stereo not drawn) [Compound 117], the “Digitaria sanguinalis activity level” value (Digitaria sanguinalis) was 9, the “Echinochloa crusgalli activity level” value (Echinochloa crusgalli) was 9 and the “Echinochloa phyllopogon activity level” value (Echinochloa phyllopogon) was 6 (Level 6: growth control rate greater than or equal to 70% and less than 80%). The “Huaidao (rice cultivar) plant damage level” value (Huaidao (rice cultivar)) was 0 and the “Leptochloa chinensis activity level” value (Leptochloa chinensis) was 9.

With `COc1c(Cl)ccc(C2CN(C)C(=O)C2C(=O)Nc2cnn(C)c2Cl)c1F` (stereo not drawn) [Compound 118] the “Digitaria sanguinalis activity level” value (Digitaria sanguinalis) was 9, the “Echinochloa crusgalli activity level” value (Echinochloa crusgalli) was 9 and the “Echinochloa phyllopogon activity level” value (Echinochloa phyllopogon) was 6 (Level 6: growth control rate greater than or equal to 70% and less than 80%). The “Leptochloa chinensis activity level” value (Leptochloa chinensis) was 6 (Level 6: growth control rate greater than or equal to 70% and less than 80%).

For `CCCCOc1cccc(C2CN(C)C(=O)C2C(=O)Nc2cnn(C)c2Cl)c1` (stereo not drawn) [Compound 221], the “Digitaria sanguinalis activity level” value (Digitaria sanguinalis) was 9 and the “Leptochloa chinensis activity level” value (Leptochloa chinensis) was 9.

`CN1CC(c2ccc(Cl)s2)C(C(=O)Nc2cnn(C)c2Cl)C1=O` (stereo not drawn) [Compound 339] was tested, and the “Digitaria sanguinalis activity level” value (Digitaria sanguinalis) was 7 (Level 7: growth control rate greater than or equal to 80% and less than 90%), the “Echinochloa crusgalli activity level” value (Echinochloa crusgalli) was 9 and the “Leptochloa chinensis activity level” value (Leptochloa chinensis) was 6 (Level 6: growth control rate greater than or equal to 70% and less than 80%).

With `COc1c(Cl)ccc(-c2nc(C(=O)OCc3ccccc3)c(Cl)c(N)c2F)c1F` [Florpyrauxifen-benzyl, florpyrauxifen-benzyl] the “Control effect of B applied alone … (%)” value (weeds; [12]) was 62.8% and the “Control effect of B applied alone … (%)” value (weeds; [13]) was 74.6%.

`COC(=O)c1nc(-c2ccc(Cl)c(OC)c2F)cc(N)c1Cl` [Halauxifen-methyl, halauxifen-methyl] was tested, and the “Control effect of B applied alone … (%)” value (weeds; [12]) was 58.4% and the “Control effect of B applied alone … (%)” value (weeds; [13]) was 68.9%.

Work on `CN(C(=O)COc1nc2ccccc2s1)c1ccccc1` [Mefenacet, mefenacet] yielded a pest or weed control at 150 g/ha (weeds; [7]) of 38.4% and a pest or weed control at 300 g/ha (weeds; [8]) of 58.3%.
